Experimental data as given in the supplement of paper PMC7840683.
± gives the standard deviation of the averaged measurements.

System: HepaRG
Experiment: LDH release cytotoxicity, % of total lysis control; higher = more cytotoxic
Settings: 48 h
How it was run: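 Duplicate wells of single-lot HepaRG cells, grown on collagen I-coated 96-well plates, received eight-point half-log series of test chemicals with 100 µM as the top concentration. Exposure lasted 48 h in serum-free induction medium with 0.5% DMSO, while total lysis wells received 0.1% Triton X. Resorufin fluorescence (CytoTox-ONE, Tecan Safire) was used to quantify LDH leaked into 50 µL of spent medium. Values for percent cytotoxicity were normalized to on-plate vehicle and total lysis controls and averaged across the duplicates.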

| SMILES | LDH release cytotoxicity (0.03162 µM) [%] | LDH release cytotoxicity (0.1 µM) [%] | LDH release cytotoxicity (0.3162278 µM) [%] | LDH release cytotoxicity (1 µM) [%] | LDH release cytotoxicity (3.16228 µM) [%] | LDH release cytotoxicity (10 µM) [%] | LDH release cytotoxicity (31.6228 µM) [%] | LDH release cytotoxicity (100 µM) [%] | LDH release cytotoxicity (0.0317809 µM) [%] | LDH release cytotoxicity (0.1005 µM) [%] | LDH release cytotoxicity (0.317809 µM) [%] | LDH release cytotoxicity (1.005 µM) [%] | LDH release cytotoxicity (3.17809 µM) [%] | LDH release cytotoxicity (10.05 µM) [%] | LDH release cytotoxicity (31.7809 µM) [%] | LDH release cytotoxicity (100.5 µM) [%] | LDH release cytotoxicity (0.031623 µM) [%] | LDH release cytotoxicity (0.316228 µM) [%] |
| --- | --- | --- | --- | --- | --- | --- | --- | --- | --- | --- | --- | --- | --- | --- | --- | --- | --- | --- |
| CC(C)OC(=O)C(C)(C)Oc1ccc(C(=O)c2ccc(Cl)cc2)cc1 [Fenofibrate] | -0.938 ± 0.65 | -0.368 ± 1.6 | -0.7726 ± 0.0031 | -1.53 ± 0.59 | -0.41 ± 0.067 | -0.735 ± 0.21 | -0.291 ± 0.23 | 0.118 ± 0.2 |  |  |  |  |  |  |  |  |  |  |
| CCOC(=O)C(C)Oc1ccc(Oc2nc3ccc(Cl)cc3o2)cc1 (stereo not drawn) [Fenoxaprop-ethyl] | -2.02 ± 0.53 | -2.51 ± 0.57 | -2.8 ± 0.91 | -2.59 ± 1 | -2.21 ± 0.26 | -2.46 ± 0.87 | -1.44 ± 0.15 | -1.21 ± 0.54 |  |  |  |  |  |  |  |  |  |  |
| CCOC(=O)NCCOc1ccc(Oc2ccccc2)cc1 [Fenoxycarb] | -2.3 ± 0.29 | -2.15 ± 0.69 | -2.2 ± 0.96 | -2.52 ± 0.77 | -2.33 ± 0.49 | -1.4 ± 0.053 | -2.64 ± 0.77 | 16.6 ± 5.7 |  |  |  |  |  |  |  |  |  |  |
| CC1(C)C(C(=O)OC(C#N)c2cccc(Oc3ccccc3)c2)C1(C)C (stereo not drawn) [Fenpropathrin] | -1.16 ± 1 | -1.28 ± 0.23 | 0.259 ± 0.35 | -1.32 ± 0.98 | -1.08 ± 0.83 | -0.114 ± 0.023 | 0.399 ± 0.42 | 1.44 ± 0.57 |  |  |  |  |  |  |  |  |  |  |
| Cc1nn(C)c(Oc2ccccc2)c1C=NOCc1ccc(C(=O)OC(C)(C)C)cc1 [Fenpyroximate (Z,E)] | -1.39 ± 1.1 | -1.596 ± 0.013 | -2.4 ± 0.59 | -2.65 ± 0.51 | 11 ± 1.3 | 17.19 ± 0.12 | 20.7 ± 1.8 | 30.9 ± 2.2 |  |  |  |  |  |  |  |  |  |  |
| COP(=S)(OC)Oc1ccc(SC)c(C)c1 [Fenthion] | -0.428 ± 0.68 | -0.733 ± 0.38 | -0.879 ± 0.25 | -0.217 ± 1 | -0.561 ± 0.56 | 0.173 ± 0.094 | 0.52 ± 0.028 | 2.37 ± 0.83 |  |  |  |  |  |  |  |  |  |  |
| N#Cc1nn(-c2c(Cl)cc(C(F)(F)F)cc2Cl)c(N)c1S(=O)C(F)(F)F (stereo not drawn) [Fipronil] |  |  |  |  |  |  |  |  | -1.15 ± 1.5 | -0.938 ± 0.22 | -1.37 ± 0.65 | -2.05 ± 0.55 | -1.97 ± 1.1 | -1.68 ± 0.5 | 19.3 ± 1.7 | 59.8 ± 2 |  |  |
| CCCCOC(=O)C(C)Oc1ccc(Oc2ccc(C(F)(F)F)cn2)cc1 (stereo not drawn) [Fluazifop-P-butyl] |  |  |  |  |  |  |  |  | -1.34 ± 1.1 | -0.704 ± 2.2 | -1.02 ± 2.1 | -0.805 ± 2.7 | -1.3 ± 1.6 | -0.416 ± 3.4 | 0.0852 ± 1.8 | -0.23 ± 1.1 |  |  |
| CCCCOC(=O)C(C)Oc1ccc(Oc2ccc(C(F)(F)F)cn2)cc1 (stereo not drawn) [Fluazifop-butyl] | -0.307 ± 2.5 | -0.771 ± 1.4 | -0.631 ± 0.81 | -0.375 ± 0.17 | -0.996 ± 0.14 | 0.207 ± 1.2 | 0.479 ± 1.7 | 1.84 ± 2.7 |  |  |  |  |  |  |  |  |  |  |
| O=[N+]([O-])c1cc(C(F)(F)F)c(Cl)c([N+](=O)[O-])c1Nc1ncc(C(F)(F)F)cc1Cl [Fluazinam] | -1.32 ± 0.49 | -1.4 ± 0.42 | -1.08 ± 0.19 | -1.53 ± 1 | -1.12 ± 0.27 | 0.179 ± 0.78 | 9.87 ± 2.4 | 55.8 ± 2.7 |  |  |  |  |  |  |  |  |  |  |
| OC(Cn1cncn1)(Cn1cncn1)c1ccc(F)cc1F [Fluconazole] | -1.56 ± 0.43 | -0.0671 ± 1.1 | 0.556 ± 0.68 | -0.472 ± 0.33 | 0.965 ± 0.97 | 0.138 ± 0.29 | 0.241 ± 0.57 | 0.712 ± 0.97 |  |  |  |  |  |  |  |  |  |  |
| N#Cc1c[nH]cc1-c1cccc2c1OC(F)(F)O2 [Fludioxonil] | -1.45 ± 1 | -1.69 ± 0.5 | -1.72 ± 0.45 | -1.04 ± 0.23 | 0.437 ± 0.076 | 0.919 ± 0.9 | 3.74 ± 0.92 | 9.41 ± 1.2 |  |  |  |  |  |  |  |  |  |  |
| CC(C)N(C(=O)COc1nnc(C(F)(F)F)s1)c1ccc(F)cc1 [Flufenacet] | -2.32 ± 1.1 | -2.03 ± 0.074 | -2.3 ± 0.27 | -2.01 ± 0.82 | -2.29 ± 0.33 | -1.38 ± 0.041 | 0.458 ± 1.1 | 1.71 ± 0.18 |  |  |  |  |  |  |  |  |  |  |
| CCOC(=O)COc1cc(-n2ncc(C(F)(F)F)c(C)c2=O)c(F)cc1Cl [Flufenpyr-ethyl] | -1.89 ± 1.7 | -1.45 ± 0.22 | -1.14 ± 0.024 | -1.34 ± 0.57 | -1.22 ± 0.67 | -0.592 ± 0.22 | -0.509 ± 1.1 | 0.726 ± 0.9 |  |  |  |  |  |  |  |  |  |  |
| CCN(Cc1c(F)cccc1Cl)c1c([N+](=O)[O-])cc(C(F)(F)F)cc1[N+](=O)[O-] [Flumetralin] | -0.56 ± 1.7 | -0.903 ± 0.34 | -1.29 ± 0.66 | -1.01 ± 0.52 | -0.0868 ± 0.54 | -0.582 ± 0.92 | -0.2 ± 0.43 | 5.506 ± 0.052 |  |  |  |  |  |  |  |  |  |  |
| Cc1ccn2nc(S(=O)(=O)Nc3c(F)cccc3F)nc2n1 [Flumetsulam] | -2 ± 0.6 | -0.7 ± 1.5 | -1.43 ± 3 | -1.43 ± 1.5 | -1.84 ± 0.62 | 0.538 ± 0.94 | 0.194 ± 2 | 1.86 ± 1.8 |  |  |  |  |  |  |  |  |  |  |
| CCCCCOC(=O)COc1cc(N2C(=O)C3=C(CCCC3)C2=O)c(F)cc1Cl [Flumiclorac-pentyl] | -1.94 ± 0.45 | -1.12 ± 1.1 | -0.329 ± 0.33 | -1.17 ± 0.56 | -0.793 ± 0.22 | -0.278 ± 0.39 | -1.05 ± 0.035 | 0.436 ± 0.073 |  |  |  |  |  |  |  |  |  |  |
| C#CCN1C(=O)COc2cc(F)c(N3C(=O)C4=C(CCCC4)C3=O)cc21 [Flumioxazin] | -0.355 ± 0.95 | -0.895 ± 0.2 | -0.721 ± 1.1 | -1.33 ± 0.85 | -0.964 ± 0.086 | -1.1 ± 0.023 | -0.837 ± 0.11 | 0.763 ± 0.79 |  |  |  |  |  |  |  |  |  |  |
| CN(C)C(=O)Nc1cccc(C(F)(F)F)c1 [Fluometuron] | -0.415 ± 0.25 | -0.308 ± 0.37 | -0.631 ± 0.97 | -0.564 ± 1.4 | -0.69 ± 0.18 | 0.366 ± 0.1 | -0.569 ± 0.084 | 0.377 ± 0.36 |  |  |  |  |  |  |  |  |  |  |
| c1ccc2c(c1)-c1cccc3cccc-2c13 [Fluoranthene] | -1.36 ± 0.16 | -0.258 ± 0.61 | -0.857 ± 0.079 | -0.0961 ± 0.27 | -0.593 ± 0.16 | -0.226 ± 0.011 | -0.969 ± 0.3 | -2.77 ± 0.41 |  |  |  |  |  |  |  |  |  |  |
| c1ccc2c(c1)Cc1ccccc1-2 [Fluorene] | -1.56 ± 0.24 | -1 ± 0.37 | -0.941 ± 0.29 | -0.74 ± 0.44 | -0.5867 ± 0.0032 | -1.05 ± 0.38 | -0.324 ± 0.11 | -0.2 ± 0.14 |  |  |  |  |  |  |  |  |  |  |
| CON=C(C1=NOCCO1)c1ccccc1Oc1ncnc(Oc2ccccc2Cl)c1F [Fluoxastrobin] | -1.84 ± 0.41 | -1.61 ± 0.52 | -0.5866 ± 0.0016 | 0.517 ± 2.5 | -0.886 ± 0.77 | -0.0116 ± 2.9 | 13.1 ± 0.82 | 33.8 ± 4 |  |  |  |  |  |  |  |  |  |  |
| CCCCCCC(C)OC(=O)COc1nc(F)c(Cl)c(N)c1Cl (stereo not drawn) [Fluroxypyr-meptyl] |  | -0.123 ± 1.8 |  | -0.348 ± 1.1 | -7.7 ± 0.78 | 8.36 ± 3.8 | -0.641 ± 0.61 | -0.963 ± 0.71 |  |  |  |  |  |  |  |  | 1.23 ± 0.18 | 0.191 ± 1 |
| Nc1c(Cl)c(F)nc(OCC(=O)O)c1Cl [Fluroxypyr] | -0.285 ± 0.61 | -1.46 ± 1.1 | -1.77 ± 1 | -1.29 ± 0.69 | -1.07 ± 0.26 | -0.274 ± 0.24 | 0.368 ± 0.6 | 1.75 ± 0.91 |  |  |  |  |  |  |  |  |  |  |
| C[Si](Cn1cncn1)(c1ccc(F)cc1)c1ccc(F)cc1 [Flusilazole] | -1.41 ± 1 | -1.68 ± 0.17 | -2.26 ± 0.57 | -1.24 ± 0.29 | -2.08 ± 0.094 | -1.2 ± 0.38 | 13.7 ± 1.9 | 42.5 ± 8.6 |  |  |  |  |  |  |  |  |  |  |
| CC(C)C(=O)Nc1ccc([N+](=O)[O-])c(C(F)(F)F)c1 [Flutamide] | -0.977 ± 0.81 | -1.06 ± 0.19 | -1.63 ± 1.3 | -1.92 ± 1.5 | -1.23 ± 0.22 | 0.0752 ± 0.3 | 2.14 ± 1.3 | 13.6 ± 7.4 |  |  |  |  |  |  |  |  |  |  |
